Where “and” joins values, the source holds several entries; their conditions need not be identical. Equal entries are not always repeated. Toxic doses and inconclusive results are not listed. Rule as the data show it: active = T/C of 150% or more; inactive = T/C below 125%.
Test system: L1210 leukemia ip in BDF1 mice, survival T/C
Experiment: NCI In Vivo Anticancer Drug Screen. Data for tumor model L1210 Leukemia (intraperitoneal) in B6D2F1 (BDF1) mice
Conditions: endpoint: mean survival time, higher = longer survival
In short: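 Ratio derived from survival: compound-dosed mice over vehicle-dosed mice, all bearing a transplantable tumor.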

[1] = dose: 100.0 mg/kg/injection, schedule: Q01DX009 (ip), vehicle: saline with Tween-80
[2] = dose: 100.0 mg/kg/injection, schedule: Q04DX002 (ip), vehicle: saline with Tween-80
[3] = dose: 100.0 mg/kg/injection, schedule: Q04DX003 (ip), vehicle: saline with Tween-80
[4] = dose: 200.0 mg/kg/injection, schedule: Q01DX009 (ip), vehicle: saline with Tween-80
[5] = dose: 200.0 mg/kg/injection, schedule: Q04DX002 (ip), vehicle: saline with Tween-80
[6] = dose: 200.0 mg/kg/injection, schedule: Q04DX003 (ip), vehicle: saline with Tween-80
[7] = dose: 400.0 mg/kg/injection, schedule: Q01DX009 (ip), vehicle: saline with Tween-80
[8] = dose: 400.0 mg/kg/injection, schedule: Q04DX002 (ip), vehicle: saline with Tween-80
[9] = dose: 400.0 mg/kg/injection, schedule: Q04DX003 (ip), vehicle: saline with Tween-80
[10] = dose: 100.0 mg/kg/injection, schedule: Q01DX001 (ip), vehicle: saline
[11] = dose: 200.0 mg/kg/injection, schedule: Q01DX001 (ip), vehicle: saline
[12] = dose: 400.0 mg/kg/injection, schedule: Q01DX001 (ip), vehicle: saline
[13] = dose: 100.0 mg/kg/injection, schedule: Q04DX002 (ip), vehicle: Klucel (hydroxypropylcellulose) (HPC)
[14] = dose: 200.0 mg/kg/injection, schedule: Q04DX002 (ip), vehicle: Klucel (hydroxypropylcellulose) (HPC)
[15] = dose: 400.0 mg/kg/injection, schedule: Q04DX002 (ip), vehicle: Klucel (hydroxypropylcellulose) (HPC)
[16] = dose: 100.0 mg/kg/injection, schedule: Q01DX009 (ip), vehicle: gum acacia
[17] = dose: 100.0 mg/kg/injection, schedule: Q04DX003 (ip), vehicle: saline
[18] = dose: 200.0 mg/kg/injection, schedule: Q04DX003 (ip), vehicle: saline
[19] = dose: 400.0 mg/kg/injection, schedule: Q04DX003 (ip), vehicle: saline
[20] = dose: 100.0 mg/kg/injection, schedule: Q04DX003 (ip), vehicle: Klucel (hydroxypropylcellulose) (HPC)
[21] = dose: 200.0 mg/kg/injection, schedule: Q04DX003 (ip), vehicle: Klucel (hydroxypropylcellulose) (HPC)

Measured: T/C

CCOC(=O)c1ccc(NC(=O)c2ccc(Cl)c(Cl)c2)cc1
inactive: dose: 100.0 mg/kg/injection, schedule: Q01DX001 (ip), vehicle: saline with Tween-80 112 % of control | [1] 97 % of control | [2] 97 % of control and 91 % of control | [3] 104 % of control | dose: 200.0 mg/kg/injection, schedule: Q01DX001 (ip), vehicle: saline with Tween-80 115 % of control | [4] 93 % of control and 101 % of control | [5] 93 % of control and 87 % of control | [6] 108 % of control | dose: 400.0 mg/kg/injection, schedule: Q01DX001 (ip), vehicle: saline with Tween-80 93 % of control | [7] 103 % of control and 114 % of control | [8] 93 % of control and 92 % of control | [9] 97 % of control

CC(C)=CCC/C(C)=C/C(=O)O
inactive: [10] 100 % of control | [11] 93 % of control | [12] 93 % of control

CCCCCCCCCCCCCCOc1ccc(F)cc1F
inactive: [13] 111 % of control | [14] 107 % of control | [15] 96 % of control

Cc1c(N=Cc2ccccc2)c(=O)n(-c2ccccc2)n1C
inactive: [16] 104 % of control | dose: 100.0 mg/kg/injection, schedule: Q04DX003 (ip), vehicle: gum acacia 100 % of control | dose: 200.0 mg/kg/injection, schedule: Q04DX003 (ip), vehicle: gum acacia 95 % of control | dose: 400.0 mg/kg/injection, schedule: Q01DX009 (ip), vehicle: gum acacia 88 % of control | dose: 400.0 mg/kg/injection, schedule: Q04DX003 (ip), vehicle: gum acacia 95 % of control

COC(OC)c1nc(SC)[nH]c(=O)c1C
inactive: [1] 88 % of control | [3] 105 % of control | [4] 89 % of control | [6] 116 % of control | [7] 88 % of control | [9] 112 % of control

Cc1cccc(SC(=O)Nc2cccc(Cl)c2C)c1
inactive: dose: 25.0 mg/kg/injection, schedule: Q01DX009 (ip), vehicle: gum acacia 100 % of control | dose: 50.0 mg/kg/injection, schedule: Q01DX009 (ip), vehicle: gum acacia 99 % of control | [16] 97 % of control and 89 % of control

CC1(C)OC(=O)C(C#N)C1c1ccc(Cl)cc1 (configuration not stated)
inactive: [10] 101 % of control | [11] 95 % of control | [12] 95 % of control

CC(C)(Cl)CCC1=C(Cl)C(=O)c2ccccc2C1=O
inactive: dose: 5.0 mg/kg/injection, schedule: Q01DX001 (ip), vehicle: water 98 % of control | dose: 10.0 mg/kg/injection, schedule: Q01DX001 (ip), vehicle: water 98 % of control

NC(=O)C[n+]1cccc(C(=O)Nc2ccc(Cl)cc2)c1
inactive: [3] 98 % of control | [6] 101 % of control

CCC(C)C(CN)(CCCCN1CCCCC1)c1cccc2ccccc12 (configuration not stated)
inactive: [3] 97 % of control | [6] 90 % of control

Cn1c(=O)oc2ccccc2c1=S
inactive: [17] 96 % of control | [18] 100 % of control | [19] 100 % of control

O=c1[nH]c(C(F)(F)F)nc2c1nc1n2CCC1
inactive: [1] 103 % of control | [3] 91 % of control | [4] 102 % of control | [6] 96 % of control | [7] 97 % of control | [9] 86 % of control

COC(=O)CN1C(c2ccccc2)=CS(=O)(=O)C=C1c1ccccc1
inactive: [10] 101 % of control | [11] 97 % of control | [12] 93 % of control

Cc1cccc(Cl)c1NC(=S)Nc1ccccc1
inactive: [13] 101 % of control | [14] 94 % of control | [15] 97 % of control

CCC(/C=C/C(C)C1CCC2C3CC=C4CC(O)CCC4(C)C3CCC12C)C(C)C (configuration not stated) (tested in a mixture with another compound)
inactive: dose: 100.0 mg/kg/injection, schedule: Q01DX001 (ip), vehicle: water 98 % of control | [3] 89 % of control | [17] 103 % of control | dose: 200.0 mg/kg/injection, schedule: Q01DX001 (ip), vehicle: water 105 % of control and 94 % of control | [18] 91 % of control | [19] 91 % of control

Cc1c(Cl)cccc1NC(=O)Oc1ccc(-c2ccccc2)cc1
inactive: dose: 50.0 mg/kg/injection, schedule: Q04DX003 (ip), vehicle: saline with Tween-80 97 % of control | [1] 95 % of control and 97 % of control | [2] 93 % of control and 91 % of control | [3] 101 % of control | [4] 104 % of control and 89 % of control | [5] 96 % of control | [6] 100 % of control | [8] 96 % of control and 103 % of control

CN(C)CCCN=Cc1ccccc1O.CN(C)CCCN=Cc1ccccc1O.[Ni+2]
inactive: dose: 6.25 mg/kg/injection, schedule: Q04DX003 (ip), vehicle: saline with Tween-80 100 % of control | dose: 12.5 mg/kg/injection, schedule: Q04DX003 (ip), vehicle: saline with Tween-80 94 % of control | dose: 25.0 mg/kg/injection, schedule: Q04DX003 (ip), vehicle: saline with Tween-80 101 % of control

O=C(O)CNc1cccc([N+](=O)[O-])c1
inactive: dose: 65.0 mg/kg/injection, schedule: Q01DX009 (ip), vehicle: Klucel (hydroxypropylcellulose) (HPC) 100 % of control | dose: 100.0 mg/kg/injection, schedule: Q01DX009 (ip), vehicle: Klucel (hydroxypropylcellulose) (HPC) 100 % of control | [20] 98 % of control | dose: 150.0 mg/kg/injection, schedule: Q01DX009 (ip), vehicle: Klucel (hydroxypropylcellulose) (HPC) 94 % of control | [21] 93 % of control | dose: 400.0 mg/kg/injection, schedule: Q04DX003 (ip), vehicle: Klucel (hydroxypropylcellulose) (HPC) 101 % of control

O/N=C/c1nc2ccccc2[nH]1
inactive: dose: 75.0 mg/kg/injection, schedule: Q01DX001 (ip), vehicle: other 90 % of control | dose: 150.0 mg/kg/injection, schedule: Q01DX001 (ip), vehicle: other 90 % of control | dose: 300.0 mg/kg/injection, schedule: Q01DX001 (ip), vehicle: other 95 % of control

NCCCCC(N)C(=O)Nc1ccc(Nc2ccc(NC(=O)C(N)CCCCN)cc2)cc1 (configuration not stated)
inactive: dose: 5.0 mg/kg/injection, schedule: Q01DX001 (ip), vehicle: saline 92 % of control | dose: 10.0 mg/kg/injection, schedule: Q01DX001 (ip), vehicle: saline 90 % of control | dose: 20.0 mg/kg/injection, schedule: Q01DX001 (ip), vehicle: saline 92 % of control | dose: 40.0 mg/kg/injection, schedule: Q01DX001 (ip), vehicle: saline 93 % of control | dose: 80.0 mg/kg/injection, schedule: Q01DX001 (ip), vehicle: saline 93 % of control

CC(=O)COc1ccc(C(=O)Cl)cc1
inactive: [20] 95 % of control | [21] 102 % of control | dose: 300.0 mg/kg/injection, schedule: Q04DX003 (ip), vehicle: Klucel (hydroxypropylcellulose) (HPC) 106 % of control

C(=Nc1cnc2ccccc2c1)c1ccnc2ccccc12
inactive: dose: 50.0 mg/kg/injection, schedule: Q01DX001 (ip), vehicle: carboxymethylcellulose (CMC) 95 % of control | dose: 100.0 mg/kg/injection, schedule: Q01DX001 (ip), vehicle: carboxymethylcellulose (CMC) 104 % of control | dose: 200.0 mg/kg/injection, schedule: Q01DX001 (ip), vehicle: carboxymethylcellulose (CMC) 107 % of control | dose: 400.0 mg/kg/injection, schedule: Q01DX001 (ip), vehicle: carboxymethylcellulose (CMC) 95 % of control

C=CCNC(=O)Nc1ncc([N+](=O)[O-])s1
inactive: dose: 25.0 mg/kg/injection, schedule: Q01DX009 (ip), vehicle: Klucel (hydroxypropylcellulose) (HPC) 90 % of control | dose: 25.0 mg/kg/injection, schedule: Q04DX002 (ip), vehicle: Klucel (hydroxypropylcellulose) (HPC) 101 % of control | dose: 50.0 mg/kg/injection, schedule: Q01DX009 (ip), vehicle: Klucel (hydroxypropylcellulose) (HPC) 111 % of control | dose: 50.0 mg/kg/injection, schedule: Q04DX002 (ip), vehicle: Klucel (hydroxypropylcellulose) (HPC) 93 % of control | [13] 93 % of control

CCCCCCCCNc1ccc(Cl)cc1
inactive: dose: 100.0 mg/kg/injection, schedule: Q01DX001 (ip), vehicle: saline + alcohol 91 % of control | dose: 200.0 mg/kg/injection, schedule: Q01DX001 (ip), vehicle: saline + alcohol 102 % of control | dose: 400.0 mg/kg/injection, schedule: Q01DX001 (ip), vehicle: saline + alcohol 98 % of control
